Results: US11236122B2, “Triterpene amine derivatives” (DFH THERAPEUTICS, priority 2018, dated 2022)
Where a name gives a salt, the structure may show the parent alone.

Assays:
WT pNL4-3 = experiment: CA-SP1 accumulation assay, WT NL4-3; type: cell-based, HIV-1; conditions: HeLa or 293T cells; for % CA-SP1 Accumulation 10 nM NL4-3: 10 nM compound; for % CA-SP1 Accumulation 100 nM NL4-3: 100 nM compound
Description: (§1) Cell culture, plasmids and transfections. The MT-4 T-cell line was maintained in RPMI-1640 medium supplemented with 10% (vol/vol) fetal bovine serum (FBS), 2 mM glutamine, 100 U/mL penicillin and 100 μg/mL streptomycin at 37° C. in a humidified 5% CO2 atmosphere. HeLa and 293T cells were maintained in Dulbecco's modified Eagle's medium (DMEM) supplemented with 5% (vol/vol) FBS, 2 mM glutamine, 100 U/mL penicillin and 100 μg/mL streptomycin. Molecular clones used in this study were WT pNL4-3 and the derivative encoding a Val-to-Ala mutation at SP1 residue 7, referred to as SP1-V7A. The MT-4 T-cell line was transfected the DEAE/dextran procedure; HeLa and 293T cells were transfected with linear polyethylenimine (L-PEI) or Lipofectamine 2000 (Invitrogen) as recommended by the supplier.
(§2) CA-SP1 accumulation assay. For CA-SP1 accumulation assays, HeLa or 293T cells were transfected with WT pNL4-3 or the SP1-V7A derivative. At 24 h post-transfection, cells were starved in Met/Cys-free medium for 30 min and metabolically labeled with [^35S]Met/Cys-Pro-mix (Amersham) for 2-3 h. Maturation inhibitors were maintained in the cultures throughout the transfection and labeling period. Viruses were collected by ultracentrifugation at 99,000×g for 45-60 min. Virus pellets were resuspended in Triton X-100 lysis buffer [300 mM NaCl, 50 mM Tris-HCl (pH 7.5), 0.5% Triton X-100, 10 mM iodoacetamide, and protease inhibitor cocktail tablets (Roche)]. CA and CA-SP1 proteins were separated on 13.5-15% polyacrylamide gels by SDS-polyacrylamide gel electrophoresis, exposed to a phosphorimager plate (Fuji) and quantified by Quantity One software (Bio-Rad).

pNL4-3 SP1-V7A = experiment: CA-SP1 accumulation assay, SP1-V7A derivative; type: cell-based, HIV-1; conditions: HeLa or 293T cells; for % CA-SP1 Accumulation 10 nM SP1 V7A: 10 nM compound; for % CA-SP1 Accumulation 100 nM SP1 V7A: 100 nM compound
Description: as §1, §2

Structure (SMILES)	% CA-SP1 Accumulation 10 nM NL4-3 (WT pNL4-3) [%]	% CA-SP1 Accumulation 100 nM NL4-3 (WT pNL4-3)	% CA-SP1 Accumulation 10 nM SP1 V7A (pNL4-3 SP1-V7A) [%]	% CA-SP1 Accumulation 100 nM SP1 V7A (pNL4-3 SP1-V7A)
C=C(C)[C@@H]1CC[C@]2(CNCCN3CCS(=O)(=O)CC3)CC[C@]3(C)[C@H](CC[C@@H]4[C@@]5(C)CC[C@H](OC(=O)CC(C)(C)C(=O)O)C(C)(C)[C@@H]5CC[C@]43C)[C@@H]12 [Compound 51y, (3β)-28-[[2-[(1,1-Dioxothiomorpholin-4-yl)]ethyl]amino]lup-20(29)-en-3-ol, 3-(1-Hydrogen 2,2-Dimethylbutanedioate) Sulfate]	56.4	69.4%	28.5	28.1%
C=C(C)[C@@H]1CC[C@]2(CCNCCCN3CCCC3)CC[C@]3(C)[C@H](CC[C@@H]4[C@@]5(C)CC[C@H](OC(=O)CC(C)(C)C(=O)O)C(C)(C)[C@@H]5CC[C@]43C)[C@@H]12 [Compound 51z, (3β)-17-[2-[[3-(1-Pyrrolidinyl)propyl]amino]ethyl]-28-norlup-20(29)-en-3-ol, 3-(1-Hydrogen 2,2-Dimethylbutanedioate) Sulfate]	9.5	19.9%	7.5	10.5%
C=C(C)[C@@H]1CC[C@]2(CCNCCCN3CCN(CCO)CC3)CC[C@]3(C)[C@H](CC[C@@H]4[C@@]5(C)CC[C@H](OC(=O)CC(C)(C)CC(=O)O)C(C)(C)[C@@H]5CC[C@]43C)[C@@H]12 [Compound 51d, (3β)-17-[2-[[3-[4-(2-Hydroxyethyl)piperazin-1-yl]propyl]amino]ethyl]-28-norlup-20(29)-en-3-ol, 3-(Hydrogen 3,3-Dimethylpentanedioate)]	–	71.6 (3) %	–	20.4 (3) %
C=C(C)[C@@H]1CC[C@]2(CCNCCCN3CCN(S(C)(=O)=O)CC3)CC[C@]3(C)[C@H](CC[C@@H]4[C@@]5(C)CC[C@H](OC(=O)CC(C)(C)CC(=O)O)C(C)(C)[C@@H]5CC[C@]43C)[C@@H]12 [Compound 51c, (3β)-17-[2-[[3-[4-(Methylsulfonyl)piperazin-1-yl]propyl]amino]ethyl]-28-norlup-20(29)-en-3-ol, 3-(Hydrogen 3,3-Dimethylpentanedioate)]	–	72.9 (3) %	–	29.2 (3) %
C=C(C)[C@@H]1CC[C@]2(CCNCCN3CCN(Cc4ccc5ccccc5n4)CC3)CC[C@]3(C)[C@H](CC[C@@H]4[C@@]5(C)CC[C@H](OC(=O)CC(C)(C)C(=O)O)C(C)(C)[C@@H]5CC[C@]43C)[C@@H]12 [Compound 51t, (3β)-17-[2-[[2-[4-(2-Quinolinylmethyl)piperazin-1-yl]ethyl]amino]ethyl]-28-norlup-20(29)-en-3-ol, 3-(1-Hydrogen 2,2-Dimethylbutanedioate)]	56.1	–	18.6	–
C=C(C)[C@@H]1CC[C@]2(CCCNCCCN3CCCC3)CC[C@]3(C)[C@H](CC[C@@H]4[C@@]5(C)CC[C@H](OC(=O)CC(C)(C)C(=O)O)C(C)(C)[C@@H]5CC[C@]43C)[C@@H]12 [Compound 51aa, (3β)-17-[3-[[3-(1-Pyrrolidinyl)propyl]amino]propyl]-28-norlup-20(29)-en-3-ol, 3-(1-Hydrogen 2,2-Dimethylbutanedioate) Sulfate]	12.5	45.2%	5.3	14.4%
